Results as given in patent US8338472B2, “Hexahydrocyclopentyl[F]indazole carboxamides and derivatives thereof as selective glucocorticoid receptor modulators” (Merck Sharp & Dohme Corp., priority 2008, dated 2012).
Read-outs that look alike come from different tables or passages of the source.

Legend:
Glucocorticoid Receptor = biological target: T1, Glucocorticoid Receptor (Homo sapiens, UniProt P04150); experiment: Trans-Activation Modulation of Glucocorticoid Receptor (GRAMMER), MMTV-LUC reporter gene in A549 cells; format: cell-based; conditions: Table 1; for Emax: A549, A549 cells, Emax relative to 300 nM dexamethasone, read-out: Transactivation A549 Cells GRAMMER Emax; for EC50: inflection point, A549 cells, read-out: Transactivation A549 Cells GRAMMER IP
T1 construct: These cells express large amount of the GR and are very responsive to GC treatment; endogenous in cells; host or cells: A549 cells transiently transfected with the MMTV-LUC reporter
T1 sequence (P04150 1-777): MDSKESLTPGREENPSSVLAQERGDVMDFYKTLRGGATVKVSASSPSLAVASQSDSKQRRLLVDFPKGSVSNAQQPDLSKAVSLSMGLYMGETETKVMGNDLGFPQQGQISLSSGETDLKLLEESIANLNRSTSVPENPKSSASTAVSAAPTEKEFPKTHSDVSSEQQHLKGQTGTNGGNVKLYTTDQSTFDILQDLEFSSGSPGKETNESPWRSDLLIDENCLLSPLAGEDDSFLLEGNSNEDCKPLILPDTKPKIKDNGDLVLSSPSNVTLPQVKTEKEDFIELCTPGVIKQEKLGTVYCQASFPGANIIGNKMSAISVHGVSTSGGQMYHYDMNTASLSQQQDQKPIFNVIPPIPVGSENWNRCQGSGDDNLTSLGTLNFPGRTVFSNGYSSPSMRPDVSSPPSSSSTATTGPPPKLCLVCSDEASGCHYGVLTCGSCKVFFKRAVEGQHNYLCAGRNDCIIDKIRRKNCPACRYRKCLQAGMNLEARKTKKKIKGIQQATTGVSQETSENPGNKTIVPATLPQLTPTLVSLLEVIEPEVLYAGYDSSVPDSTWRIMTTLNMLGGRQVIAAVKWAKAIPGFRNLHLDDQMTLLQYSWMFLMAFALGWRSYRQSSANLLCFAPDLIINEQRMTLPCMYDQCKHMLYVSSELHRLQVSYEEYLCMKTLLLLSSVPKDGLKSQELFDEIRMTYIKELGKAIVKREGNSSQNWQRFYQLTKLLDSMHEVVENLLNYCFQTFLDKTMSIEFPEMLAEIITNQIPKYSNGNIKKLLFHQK
Excerpt: Trans-Activation Modulation of Glucocorticoid Receptor (GRAMMER)
This assay assesses the ability of test compounds to control transcription from the MMTV-LUC reporter gene in lung adenocarcinoma A549 cells or MDA-MB-453 cells, a human breast cancer cell line that naturally expresses the human GR. The assay measures induction of a modified MMTV LTR/promoter linked to the LUC reporter gene.
The routine transient assay consists of plating 7,000-25,000 cells/well of a white, clear-bottom 96-well plate. Alternatively, 384-well plates can be used at a cell concentration of 10,000/well. The media that the cells are plated in is “exponential growth medium” which consists of phenol red-free RPMI1640 containing 10% FBS, 4 mM L-glutamine, 20 mM HEPES, 10 ug/mL human insulin, and 20 ug/mL gentamicin. Incubator conditions are 37° C. and 5% CO2. The transfection is done in batch mode. The cells are trypsinized and counted to the right cell number in the proper amount of fresh media. It is then gently mixed with the FuGene6/DNA mix and plated onto the 96 or 384-well plate, all the wells receive 100 uL or 40 uL, respectively, of medium+lipid/DNA complex then incubated 37° C. overnight. The transfection cocktail consists of serum-free OptiMEM, FuGene6 reagent and DNA. The manufacturer's (Roche Biochemical) protocol for cocktail setup is as follows: The lipid to DNA ratio is approximately 2.5:1 and the incubation time is 20 min at room temperature. Sixteen to 24 hours after transfection, the cells are treated with dexamethasone to a final concentration of 10 nM as well as the compound of interest, such that final DMSO (vehicle) concentration is equal to or less than 1%. Each plate also contains samples that are treated with 10 nM dexamethasone alone, which is used as the 100% activity control. The cells are exposed to the compounds for 24 hours. After 24 hours, the cells are lysed by a Promega cell culture lysis buffer for approximately 30 min and then the luciferase activity in the extracts is assayed in the 96-well format luminometer. In 384-well format, Steady-Glo (Promega) or Steady-Lite (PerkinElmer) can be used by adding an equal volume of reagent to the media present in each well. Activity induced by 10 nM dexamethasone alone is set at 100% activity. Antagonist activity is calculated by determining the decrease in dexamethasone-induced activity in response to compound treatment relative to samples that were treated with dexamethasone alone. […] This transactivation assay can be performed in an agonist and antagonist mode to identify these different activities.
Activity of test compounds is calculated as the Emax relative to the activity obtained with 300 nM dexamethasone. Activity of test compounds is calculated as the Emax relative to the activity obtained with 300 nM DEX. […] The action of compounds is also tested in an antagonist mode (Anti-GRAMMER) in which the cells are treated with medium containing an agonist such as 10 nM DEX and the ability to agents to inhibit the activation by an agonist is measured.

human GR = biological target: T2, human GR (Homo sapiens, UniProt P04150); experiment: Transrepression Assay (GITAR), TNFα-β-lactamase reporter gene in U937 cells; format: cell-based; conditions: for GITAR Greater than by GRAMMER % SEP: GITAR Emax minus GRAMMER Emax; for EC50: inflection point, U937 cells, read-out: Transrepression U937 Cells GITAR IP
T2 construct: U937 cells contain an endogenous glucocorticoid receptor (GR); endogenous in cells; host or cells: U937 cells stably transfected with the TNF-alpha promoter/beta-lactamase reporter
T2 sequence (P04150 1-777): T1 sequence (P04150 1-777)
Excerpt: Transrepression Assay (GITAR)
This assay assesses the ability of test compounds to control transcription from the TNFα-β-lactamase reporter gene in U937 cells, a human myelomonocytic leukemia cell line that naturally expresses the human GR. The assay measures compound dependent-repression of the TNFa promoter linked to a reporter gene.
The human U937 cells that had been stablely transfected with the TNF-α promoter driving β-lactamase are used for this assay. U937 cells contain an endogenous glucocorticoid receptor (GR). Cells are maintained in RPMI 1640 Growth medium (Gibco Cat#11875-093) containing 25 mM HEPES, 10% FBS, 2 mM L-Glutamine, 1 mM Sodium pyruvate, 25 μg/ml Gentamicin (Gibco Cat#15710-064), 1:1000 2-Mercaptoethanol (Gibco Cat#21985-023) and 0.8 mg/ml G418 (Gibco Cat#10131-027). The density of the cells in the flask needs to be about 1×10^6−3×10^6/ml at the time of harvest. Usually, the cells are split to 1.2˜1.4×10^5/ml (1:10) 3 days prior to the assay. 50,000 cells/well are plated in 96 well black-walled plates the day of assay. Test compounds are added 10 pt/well, and cells are incubated at 37° C. for 30-45 min. For assaying compounds, first dilute 1:10 in DMSO to make 1 mM, then further dilute 1:100 in medium to make 10× stock prior to adding to the cells. Add 50 ng/ml PMA (Sigma, cat# P8139) 10 μL/well to a final concentration 5 ng/ml, and 1 μg/ml LPS (Sigma, cat# L4130) 10 μL/well to a final concentration 100 ng/ml. Incubate cells at 37° C. overnight for ˜18 hr. PMA is stored frozen as 100 μg/ml stock in DMSO. Dilute 1:10 in DMSO for a working stock of 10 μg/ml and store at −20C. For assaying, dilute the […] working stock 1:200 in medium to make a 10× solution (50 ng/ml). Store frozen LPS at 1 mg/ml in PBS, dilute 1:1000 in medium to make 10× (1 μg/ml) for the assay. Add 6× loading buffer (CCF2−AM) 20 μL/well, and incubate at room temperature for 70-90 min. […] The activity repressed by 100 nM dexamethasone alone is set as 100% activity.

[1] = biological target: T3, glucocorticoid receptor (GR) (Homo sapiens, UniProt P04150); experiment: Ligand binding assay (GR BIND), 3H-dexamethasone displacement in MDA-MB-453 cell lysate; conditions: GR BIND Ki, Table 1
T3 sequence (P04150 1-777): T1 sequence (P04150 1-777)

[2] = U-937, U937 cells, activity repressed by 100 nM dexamethasone = 100%, Table 1, read-out: Transrepression U937 Cells GITAR Emax
[3] = U-937, text statement, 100 nM dexamethasone = 100%, read-out: maximal activity in the transrepression assay (GITAR)

Row | Structure (SMILES) | Emax (Glucocorticoid Receptor) | EC50 (Glucocorticoid Receptor) | GITAR Greater than by GRAMMER % SEP (human GR; Table 1) | Emax (human GR; [2]) | Emax (human GR; [3]) | EC50 (human GR; Table 1) | Ki [1]
1 | CC(O)CN(CC(C)O)C(=O)[C@H]1CCC2=Cc3c(cnn3-c3ccc(F)cc3)C[C@@]21C (stereo partly drawn) [Compound 10, (4αR,5S)-1-(4-fluorophenyl)-N,N-bis(2-hydroxypropyl)-4α-methyl-1,4,4α,5,6,7-hexahydrocyclopenta[f]indazole-5-carboxamide] | 40.8% | 326 nM | 19.0% | 59.8% | > 5% | 384 nM | 1.8 nM
2 | CC(C)CN(CC(C)C)C(=O)[C@H]1CCC2=Cc3c(cnn3-c3ccc(F)cc3)C[C@@]21C [Compound 11, (4αR,5S)-1-(4-fluorophenyl)-N,N-diisobutyl-4α-methyl-1,4,4α,5,6,7-hexahydrocyclopenta[f]indazole-5-carboxamide] | 45.3% | 177 nM | 22.2% | 67.5% | > 5% | 328 nM | 1.7 nM
3 | CCCCN(CC)C(=O)[C@H]1CCC2=Cc3c(cnn3-c3ccc(F)cc3)C[C@@]21C [Compound 12, (4αR,5S)-N-butyl-N-ethyl-1-(4-fluorophenyl)-4α-methyl-1,4 ,4α,5,6,7-hexahydrocyclopenta[f]indazole-5-carboxamide] | 29.7% | 376 nM | 26.6% | 56.3% | > 5% | 662 nM | 1.4 nM
4 | C[C@]12Cc3cnn(-c4ccc(F)cc4)c3C=C1CC[C@@H]2C(=O)N(CCC#N)CCC#N [Compound 13, (4αR,5S)-N,N-bis(2-cyanoethyl)-1-(4-fluorophenyl)-4α-methyl-1,4,4α,5,6,7-hexahydrocyclopenta[f]indazole-5-carboxamide] | 14.4% | 519 nM | 13.6% | 28% | > 5% | 1080 nM | 35.3 nM
5 | CCCN(C(=O)[C@H]1CCC2=Cc3c(cnn3-c3ccc(F)cc3)C[C@@]21C)C(C)CC (stereo partly drawn) [Compound 16, (4αR,5S)-N-(sec-butyl)-1-(4-fluorophenyl)-4α-methyl-N-propyl-1,4,4α,5,6,7-hexahydrocyclopenta[f]indazole-5-carboxamide] | 33.8% | 184 nM | 28.1% | 61.8% | > 5% | 376 nM | 2.8 nM
6 | CC1CN(C(=O)[C@H]2CCC3=Cc4c(cnn4-c4ccc(F)cc4)C[C@@]32C)CC(C)O1 (stereo partly drawn) [Compound 17, (4αR,5S)-5-[(2,6-dimethylmorpholin-4-yl)carbonyl]-1-(4-fluorophenyl)-4α-methyl-1,4,4α,5,6,7-hexahydrocyclopenta[f]indazole] | 9.4% | 526 nM | 2.3% | 11.8% | > 5% | 1830 nM | 43.6 nM

Continued, values first:

Row | Emax (Glucocorticoid Receptor) | EC50 (Glucocorticoid Receptor) | GITAR Greater than by GRAMMER % SEP (human GR; Table 1) | Emax (human GR; [2]) | Emax (human GR; [3]) | EC50 (human GR; Table 1) | Ki [1] | Structure (SMILES)
7 | 11.2% | 1420 nM | 27.1% | 38.3% | > 5% | 1590 nM | 10.8 nM | C[C@]12Cc3cnn(-c4ccc(F)cc4)c3C=C1CC[C@@H]2C(=O)N(CCC#N)C1CC1 [Compound 14, (4αR,5S)-N-(2-cyanoethyl)-N-cyclopropyl-1-(4-fluorophenyl)-4α-methyl-1,4,4α,5,6,7-hexahydrocyclopenta[f]indazole-5-carboxamide]
8 | 5.3% | 1540 nM | 7.2% | 12.5% | > 5% | 3410 nM | 120 nM | C[C@]12Cc3cnn(-c4ccc(F)cc4)c3C=C1CC[C@@H]2C(=O)N1CCCC(=O)CC1 [Compound 15, 1-{[(4αR,5S)-1-(4-fluorophenyl)-4α-methyl-1,4,4α,5,6,7-hexahydrocyclopenta[f]indazol-5-yl]carbonyl}azepan-4-one]
9 | 4% | 1690 nM | 6.2% | 10.2% | > 5% | 4260 nM | 4.5 nM | C[C@]12Cc3cnn(-c4ccc(F)cc4)c3C=C1CC[C@@H]2C(=O)N1CCCC1CCc1ccccc1 (stereo partly drawn) [Compound 19, (4αR,5S)-1-(4-fluorophenyl)-4α-methyl-5-{[2-(2-phenylethyl)pyrrolidin-1-yl]carbonyl}-1,4,4α,5,6,7-hexahydrocyclopenta[f]indazole]
